Patent US20240092784A1, “CONDENSED HETEROCYCLIC COMPOUND” (NISSAN CHEMICAL CORPORATION, priority 2020, published 2024)

Biological target: human SPR (Homo sapiens (Human), UniProt P35270)
Assay: Evaluation Example 2: Measurement of human SPR inhibitory activity (seven concentrations, sepiapterin absorbance at 420 nm)
Assay type: biochemical
Details: Evaluation Example 2, seven concentrations 0.14 nM to 100 nM, 240 minutes at room temperature, read-out: IC50
Procedure, shortened: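 His-tagged full-length human SPR (1-261) was expressed in E. coli and the tag removed. Enzyme at 150 ng/mL in 100 mM Tris-HCl pH 7.5/0.01% BSA was mixed with compound (0.14–100 nM, seven points), 120 μM sepiapterin and 160 μM NADPH, both as added-solution concentrations. After 240 min at room temperature, remaining sepiapterin was read at 420 nm to give percent inhibition.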

Chain of human SPR (P35270 whole entry): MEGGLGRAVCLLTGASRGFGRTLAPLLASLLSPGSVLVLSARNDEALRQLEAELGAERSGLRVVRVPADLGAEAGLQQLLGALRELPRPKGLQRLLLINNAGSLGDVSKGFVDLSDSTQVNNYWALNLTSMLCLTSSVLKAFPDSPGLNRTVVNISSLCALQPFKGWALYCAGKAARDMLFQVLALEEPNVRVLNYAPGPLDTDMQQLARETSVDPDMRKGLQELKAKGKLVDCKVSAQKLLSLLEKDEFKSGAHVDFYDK

With Cc1nn2c(O)c(C(=O)NC3CC3)c(=O)n(CC(C)C)c2c1/C=C/C(=O)N1[C@H](C)COC[C@@H]1C [Synthesis Example 641, N-Cyclopropyl-3-((E)-3-(cis-3,5-dimethylmorpholino)-3-oxoprop-1-en-1-yl)-7-hydroxy-4-isobutyl-2-methyl-5-oxo-4,5-dihydropyrazolo[1,5-a]pyrimidine-6-carboxamide] as the molecule, how does the IC50 read?
Its IC50 is 890 pM.

Which IC50 does the source give for Cc1nn2c(O)c(C(=O)NC3CC3)c(=O)n(CC(C)C)c2c1/C=C/C(=O)N1CCOC[C@H]1c1ccccc1 [Synthesis Example 642, (R,E)-N-Cyclopropyl-7-hydroxy-4-isobutyl-2-methyl-5-oxo-3-(3-oxo-3-(3-phenylmorpholino)prop-1-en-1-yl)-4,5-dihydropyrazolo[1,5-a]pyrimidine-6-carboxamide] here?
Its IC50 is 940 pM.

Cc1nn2c(O)c(C(=O)NC3CC3)c(=O)n(CC(C)C)c2c1/C=C/C(=O)N1CCOC[C@@H]1c1ccccc1 [Synthesis Example 643, (S,E)-N-Cyclopropyl-7-hydroxy-4-isobutyl-2-methyl-5-oxo-3-(3-oxo-3-(3-phenylmorpholino)prop-1-en-1-yl)-4,5-dihydropyrazolo[1,5-a]pyrimidine-6-carboxamide] was tested. Which IC50 did it give?
The IC50 was 1370 pM.

Cc1nn2c(O)c(C(=O)NC3CC3)c(=O)n(CC(C)C)c2c1/C=C/C(=O)N1C[C@@H](C)OC[C@H]1C [Synthesis Example 644, N-Cyclopropyl-3-((E)-3-((2R,5R)-2,5-dimethylmorpholino)-3-oxoprop-1-en-1-yl)-7-hydroxy-4-isobutyl-2-methyl-5-oxo-4,5-dihydropyrazolo[1,5-a]pyrimidine-6-carboxamide] was tested. Which IC50 did it give?
Its IC50 is 910 pM.

How did the IC50 turn out when Cc1nn2c(O)c(C(=O)NC3CC3)c(=O)n(CC(C)C)c2c1/C=C/C(=O)N1C[C@H](C)OC[C@@H]1C [Synthesis Example 645, N-Cyclopropyl-3-((E)-3-((2S,5S)-2,5-dimethylmorpholino)-3-oxoprop-1-en-1-yl)-7-hydroxy-4-isobutyl-2-methyl-5-oxo-4,5-dihydropyrazolo[1,5-a]pyrimidine-6-carboxamide] was run?
Its IC50 is 800 pM.

With Cc1nn2c(O)c(C(=O)NC3CC3)c(=O)n(CC(C)C)c2c1/C=C/C(=O)N1C[C@H](C)OC[C@H]1C [Synthesis Example 646, N-Cyclopropyl-3-((E)-3-((2S,5R)-2,5-dimethylmorpholino)-3-oxoprop-1-en-1-yl)-7-hydroxy-4-isobutyl-2-methyl-5-oxo-4,5-dihydropyrazolo[1,5-a]pyrimidine-6-carboxamide] as the molecule, how does the IC50 read?
The IC50 was 870 pM.

Which IC50 does the source give for Cc1nn2c(O)c(C(=O)NC3CC3)c(=O)n(CC(C)C)c2c1/C=C/C(=O)N1C[C@@H](C)OC[C@@H]1C [Synthesis Example 647, N-Cyclopropyl-3-((E)-3-((2R,5S)-2,5-dimethylmorpholino)-3-oxoprop-1-en-1-yl)-7-hydroxy-4-isobutyl-2-methyl-5-oxo-4,5-dihydropyrazolo[1,5-a]pyrimidine-6-carboxamide] here?
Its IC50 is 810 pM.

How did the IC50 turn out when Cc1nn2c(O)c(C(=O)NC3CC3)c(=O)n(CC(C)C)c2c1/C=C/C(=O)N1C[C@@H](F)[C@@H](F)C1 [Synthesis Example 648, N-Cyclopropyl-3-((E)-3-(cis-3,4-difluoropyrrolidin-1-yl)-3-oxoprop-1-en-1-yl)-7-hydroxy-4-isobutyl-2-methyl-5-oxo-4,5-dihydropyrazolo[1,5-a]pyrimidine-6-carboxamide] was run?
Its IC50 is 740 pM.

Cc1nn2c(O)c(C(=O)NC3CC3)c(=O)n(CC(C)C)c2c1/C=C/C(=O)N1C2CCC1CC(F)(F)C2 [Synthesis Example 650, (E)-N-Cyclopropyl-3-(3-(3,3-difluoro-8-azabicyclo[3.2.1]octan-8-yl)-3-oxoprop-1-en-1-yl)-7-hydroxy-4-isobutyl-2-methyl-5-oxo-4,5-dihydropyrazolo[1,5-a]pyrimidine-6-carboxamide] was tested. Which IC50 did it give?
Its IC50 is 950 pM.

Cc1nn2c(O)c(C(=O)NC3CC3)c(=O)n(CC(C)C)c2c1/C=C/C(=O)N1CC2CCC(C1)C2(F)F [Synthesis Example 651, (E)-N-Cyclopropyl-3-(3-(8,8-difluoro-3-azabicyclo[3.2.1]octan-3-yl)-3-oxoprop-1-en-1-yl)-7-hydroxy-4-isobutyl-2-methyl-5-oxo-4,5-dihydropyrazolo[1,5-a]pyrimidine-6-carboxamide] was tested. Which IC50 did it give?
The IC50 was 1190 pM.

For Cc1nn2c(O)c(C(=O)NC3CC3)c(=O)n(CC(C)C)c2c1/C=C/C(=O)N1CCCC12CC2 [Synthesis Example 652, (E)-N-Cyclopropyl-7-hydroxy-4-isobutyl-2-methyl-5-oxo-3-(3-oxo-3-(4-azaspiro[2.4]heptan-4-yl)prop-1-en-1-yl)-4,5-dihydropyrazolo[1,5-a]pyrimidine-6-carboxamide], which IC50 is on record?
Its IC50 is 2180 pM.

For CCc1nn2c(O)c(C(=O)NC3CC3)c(=O)n(CC(C)C)c2c1/C=C/C(=O)N1CCOC[C@@H]1C [Synthesis Example 653, (S,E)-N-Cyclopropyl-2-ethyl-7-hydroxy-4-isobutyl-3-(3-(3-methylmorpholino)-3-oxoprop-1-en-1-yl)-5-oxo-4,5-dihydropyrazolo[1,5-a]pyrimidine-6-carboxamide], which IC50 is on record?
Its IC50 is 740 pM.

For CCc1nn2c(O)c(C(=O)NC3CC3)c(=O)n(CC(C)C)c2c1/C=C/C(=O)N1CCC[C@@H]1C(C)(C)O [Synthesis Example 654, (R,E)-N-Cyclopropyl-2-ethyl-7-hydroxy-3-(3-(2-(2-hydroxypropan-2-yl)pyrrolidin-1-yl)-3-oxoprop-1-en-1-yl)-4-isobutyl-5-oxo-4,5-dihydropyrazolo[1,5-a]pyrimidine-6-carboxamide], which IC50 is on record?
Its IC50 is 950 pM.

Cc1nn2c(O)c(C(=O)NC3CC3)c(=O)n(CC(C)(C)C)c2c1/C=C/C(=O)N1CCC[C@@H]1C(C)(C)O [Synthesis Example 655, (R,E)-N-Cyclopropyl-7-hydroxy-3-(3-(2-(2-hydroxypropan-2-yl)pyrrolidin-1-yl)-3-oxoprop-1-en-1-yl)-2-methyl-4-neopentyl-5-oxo-4,5-dihydropyrazolo[1,5-a]pyrimidine-6-carboxamide] was tested. Which IC50 did it give?
The IC50 was 1050 pM.

With Cc1nn2c(O)c(C(=O)NC3CC3)c(=O)n(CC(C)C)c2c1/C=C/C(=O)N1CCOCC1(C)C [Synthesis Example 656, (E)-N-Cyclopropyl-3-(3-(3,3-dimethylmorpholino)-3-oxoprop-1-en-1-yl)-7-hydroxy-4-isobutyl-2-methyl-5-oxo-4,5-dihydropyrazolo[1,5-a]pyrimidine-6-carboxamide] as the molecule, how does the IC50 read?
The IC50 was 1150 pM.

For Cc1nn2c(O)c(C(=O)NC3CC3)c(=O)n(CC(C)C)c2c1/C=C/C(=O)N1CCOC(C)(C)C1 [Synthesis Example 657, (E)-N-Cyclopropyl-3-(3-(2,2-dimethylmorpholino)-3-oxoprop-1-en-1-yl)-7-hydroxy-4-isobutyl-2-methyl-5-oxo-4,5-dihydropyrazolo[1,5-a]pyrimidine-6-carboxamide], which IC50 is on record?
The IC50 was 920 pM.

Cc1nn2c(O)c(C(=O)NC3CC3)c(=O)n(CC(C)C)c2c1/C=C/C(=O)N1C2CCC1COC2 [Synthesis Example 658, (E)-3-(3-(3-Oxa-8-azabicyclo[3.2.1]octan-8-yl)-3-oxoprop-1-en-1-yl)-N-cyclopropyl-7-hydroxy-4-isobutyl-2-methyl-5-oxo-4,5-dihydropyrazolo[1,5-a]pyrimidine-6-carboxamide] was tested. Which IC50 did it give?
Its IC50 is 780 pM.

Which IC50 does the source give for CC[C@H]1COCCN1C(=O)/C=C/c1c(C)nn2c(O)c(C(=O)NC3CC3)c(=O)n(CC(C)C)c12 [Synthesis Example 659, (S,E)-N-Cyclopropyl-3-(3-(3-ethylmorpholino)-3-oxoprop-1-en-1-yl)-7-hydroxy-4-isobutyl-2-methyl-5-oxo-4,5-dihydropyrazolo[1,5-a]pyrimidine-6-carboxamide] here?
Its IC50 is 830 pM.

Cc1nn2c(O)c(C(=O)NC3CC3)c(=O)n(CC(C)C)c2c1/C=C/C(=O)N1CCCC12CCCN(C(=O)OC(C)(C)C)C2 (centres unmarked) [Synthesis Example 660, Tert-butyl (E)-1-(3-(6-(cyclopropylcarbamoyl)-7-hydroxy-4-isobutyl-2-methyl-5-oxo-4,5-dihydropyrazolo[1,5-a]pyrimidin-3-yl)acryloyl)-1,7-diazaspiro[4.5]decane-7-carboxylate] was tested. Which IC50 did it give?
The IC50 was 3970 pM.

For Cc1nn2c(O)c(C(=O)NC3CC3)c(=O)n(CC(C)C)c2c1/C=C/C(=O)N1CCCC12CCN(C(=O)OC(C)(C)C)CC2 [Synthesis Example 661, Tert-butyl (E)-1-(3-(6-(cyclopropylcarbamoyl)-7-hydroxy-4-isobutyl-2-methyl-5-oxo-4,5-dihydropyrazolo[1,5-a]pyrimidin-3-yl)acryloyl)-1,8-diazaspiro[4.5]decane-8-carboxylate], which IC50 is on record?
The IC50 was 2480 pM.

Which IC50 does the source give for Cc1nn2c(O)c(C(=O)NC3CC3)c(=O)n(CC(C)C)c2c1/C=C/C(=O)N1CCCC12CCCN(C)C2 (centres unmarked) [Synthesis Example 662, (E)-N-Cyclopropyl-7-hydroxy-4-isobutyl-2-methyl-3-(3-(7-methyl-1,7-diazaspiro[4.5]decan-1-yl)-3-oxoprop-1-en-1-yl)-5-oxo-4,5-dihydropyrazolo[1,5-a]pyrimidine-6-carboxamide] here?
The IC50 was 1080 pM.

Which IC50 does the source give for CC(=O)N1CCCC2(CCCN2C(=O)/C=C/c2c(C)nn3c(O)c(C(=O)NC4CC4)c(=O)n(CC(C)C)c23)C1 (centres unmarked) [Synthesis Example 663, (E)-3-(3-(7-Acetyl-1,7-diazaspiro[4.5]decan-1-yl)-3-oxoprop-1-en-1-yl)-N-cyclopropyl-7-hydroxy-4-isobutyl-2-methyl-5-oxo-4,5-dihydropyrazolo[1,5-a]pyrimidine-6-carboxamide] here?
Its IC50 is 1410 pM.

Cc1nn2c(O)c(C(=O)NC3CC3)c(=O)n(CC(C)C)c2c1/C=C/C(=O)N1CCCC12CCN(C)CC2 [Synthesis Example 664, (E)-N-Cyclopropyl-7-hydroxy-4-isobutyl-2-methyl-3-(3-(8-methyl-1,8-diazaspiro[4.5]decan-1-yl)-3-oxoprop-1-en-1-yl)-5-oxo-4,5-dihydropyrazolo[1,5-a]pyrimidine-6-carboxamide] was tested. Which IC50 did it give?
The IC50 was 770 pM.
